Source: the supplement of paper PMC11208160

Assay: recombinant UMI read abundance after kanamycin selection (control-corrected) (log10(CPM+1)); higher = more efficient recombination; extreme values may be limits of the assay; sequences stand for … in AGTGCAGAGAAAATCGGCCAGTTTTCTCTGCCTGCAGTCCGCATGCCGTGGGACCCCTTGGGTTCTAACCTGTTGCCTAGATTTATGCAGCGGACTGCCTTTCTCCCAAAGTGATAAACCGG…AGGTTGGTTTCACT; site = the 11-nt donor
How it was run: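 Under IPTG (0.07 mM) plus kanamycin, or without selection, Escherichia coli carrying a UMI-tagged donor and donor-binding-loop pair library and a target plasmid for the IS621 bridge recombinase were plated in two replicates. Recombinant UMIs were PCR-amplified across the donor–target junction and sequenced. Counts were converted to CPM, averaged over replicates, scaled by control-derived factors and reported as log10(CPM+1).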
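Note: IS621 bridge recombinase in Escherichia coli cells against a fixed T5 target plasmid.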

Row | Sequence | recombinant UMI read abundance (log10)
1 | ATTTATGCATGGACCGGTTTTCCCGGTAATCCGTATTTGGA (site ATTTATGCTTC) | 0.0921
2 | CAAAACACATGGACCGGTTTTCCCGGTAATCCGTATTTGCC (site CAAAACACTGG) | 0
3 | CAAACATCATGGACCGGTTTTCCCGGTAATCCGTATTTGTA (site CAAACATCTTA) | 2.53
4 | CAAATCACATGGACCGGTTTTCCCGGTAATCCGTATTTGGG (site CAAATCACTCC) | 0.288
5 | CAAATCACATGGACCGGTTTTCCCGGTAATCCGTATTTGGG (site CAACTCACTCC) | 0.02
6 | CAAATCACATGGACCGGTTTTCCCGGTAATCCGTATTTGGG (site CAAGTCACTCC) | 0.00775
7 | CAAATCACATGGACCGGTTTTCCCGGTAATCCGTATTTGGG (site CAATTCACTCC) | 0.0243
8 | CAACATTCATGGACCGGTTTTCCCGGTAATCCGTATTTGCA (site CAACATTCTTG) | 2.5
9 | CAACCCGCATGGACCGGTTTTCCCGGTAATCCGTATTTGTT (site CAACCCGCTAA) | 1.49
10 | CAACTCACATGGACCGGTTTTCCCGGTAATCCGTATTTGGG (site CAAATCACTCC) | 0.0187
11 | CAACTCACATGGACCGGTTTTCCCGGTAATCCGTATTTGGG (site CAACTCACTCC) | 0.0233
12 | CAACTCACATGGACCGGTTTTCCCGGTAATCCGTATTTGGG (site CAAGTCACTCC) | 0.00719
13 | CAACTCACATGGACCGGTTTTCCCGGTAATCCGTATTTGGG (site CAATTCACTCC) | 0.013
14 | CAACTGACATGGACCGGTTTTCCCGGTAATCCGTATTTGCT (site CAACTGACTAG) | 2.48
15 | CAAGAGACATGGACCGGTTTTCCCGGTAATCCGTATTTGCG (site CAAGAGACTCG) | 3.11
16 | CAAGAGCCATGGACCGGTTTTCCCGGTAATCCGTATTTGGG (site CAAGAGCCTCC) | 0.00368
17 | CAAGCAGCATGGACCGGTTTTCCCGGTAATCCGTATTTGAT (site CAAGCAGCTAA) | 0.982
18 | CAAGCAGCATGGACCGGTTTTCCCGGTAATCCGTATTTGAT (site CAAGCAGCTAC) | 0.271
19 | CAAGCAGCATGGACCGGTTTTCCCGGTAATCCGTATTTGAT (site CAAGCAGCTAG) | 0.784
20 | CAAGCAGCATGGACCGGTTTTCCCGGTAATCCGTATTTGAT (site CAAGCAGCTAT) | 2.44
21 | CAAGCAGCATGGACCGGTTTTCCCGGTAATCCGTATTTGCG (site CAAGCAGCTAG) | 1.9
22 | CAAGCAGCATGGACCGGTTTTCCCGGTAATCCGTATTTGCG (site CAAGCAGCTCG) | 1.81
23 | CAAGCAGCATGGACCGGTTTTCCCGGTAATCCGTATTTGCG (site CAAGCAGCTGG) | 0
24 | CAAGCAGCATGGACCGGTTTTCCCGGTAATCCGTATTTGCG (site CAAGCAGCTTG) | 1.68
25 | CAAGCAGCATGGACCGGTTTTCCCGGTAATCCGTATTTGCT (site AAAGCAGCTAG) | 0

Row | Sequence | recombinant UMI read abundance (log10)
26 | CAAGCAGCATGGACCGGTTTTCCCGGTAATCCGTATTTGCT (site CAAACAGCTAG) | 0.972
27 | CAAGCAGCATGGACCGGTTTTCCCGGTAATCCGTATTTGCT (site CAACCAGCTAG) | 0
28 | CAAGCAGCATGGACCGGTTTTCCCGGTAATCCGTATTTGCT (site CAAGAAGCTAG) | 0.892
29 | CAAGCAGCATGGACCGGTTTTCCCGGTAATCCGTATTTGCT (site CAAGCAACTAG) | 1.47
30 | CAAGCAGCATGGACCGGTTTTCCCGGTAATCCGTATTTGCT (site CAAGCACCTAG) | 0
31 | CAAGCAGCATGGACCGGTTTTCCCGGTAATCCGTATTTGCT (site CAAGCAGCTAA) | 0.285
32 | CAAGCAGCATGGACCGGTTTTCCCGGTAATCCGTATTTGCT (site CAAGCAGCTAC) | 0.0274
33 | CAAGCAGCATGGACCGGTTTTCCCGGTAATCCGTATTTGCT (site CAAGCAGCTAG) | 1.84
34 | CAAGCAGCATGGACCGGTTTTCCCGGTAATCCGTATTTGCT (site CAAGCAGCTAT) | 2.19
35 | CAAGCAGCATGGACCGGTTTTCCCGGTAATCCGTATTTGCT (site CAAGCAGCTCG) | 0.839
36 | CAAGCAGCATGGACCGGTTTTCCCGGTAATCCGTATTTGCT (site CAAGCAGCTGG) | 1.4
37 | CAAGCAGCATGGACCGGTTTTCCCGGTAATCCGTATTTGCT (site CAAGCAGCTTG) | 1.3
38 | CAAGCAGCATGGACCGGTTTTCCCGGTAATCCGTATTTGCT (site CAAGCATCTAG) | 0.937
39 | CAAGCAGCATGGACCGGTTTTCCCGGTAATCCGTATTTGCT (site CAAGCCGCTAG) | 0.0579
40 | CAAGCAGCATGGACCGGTTTTCCCGGTAATCCGTATTTGCT (site CAAGCGGCTAG) | 0.638
41 | CAAGCAGCATGGACCGGTTTTCCCGGTAATCCGTATTTGCT (site CAAGCTGCTAG) | 0.0658
42 | CAAGCAGCATGGACCGGTTTTCCCGGTAATCCGTATTTGCT (site CAAGGAGCTAG) | 0
43 | CAAGCAGCATGGACCGGTTTTCCCGGTAATCCGTATTTGCT (site CAAGTAGCTAG) | 0
44 | CAAGCAGCATGGACCGGTTTTCCCGGTAATCCGTATTTGCT (site CAATCAGCTAG) | 0
45 | CAAGCAGCATGGACCGGTTTTCCCGGTAATCCGTATTTGCT (site CACGCAGCTAG) | 0.416
46 | CAAGCAGCATGGACCGGTTTTCCCGGTAATCCGTATTTGCT (site CAGGCAGCTAG) | 0.00336
47 | CAAGCAGCATGGACCGGTTTTCCCGGTAATCCGTATTTGCT (site CATGCAGCTAG) | 0.0527
48 | CAAGCAGCATGGACCGGTTTTCCCGGTAATCCGTATTTGCT (site CCAGCAGCTAG) | 0.00438
49 | CAAGCAGCATGGACCGGTTTTCCCGGTAATCCGTATTTGCT (site CGAGCAGCTAG) | 0.00425
50 | CAAGCAGCATGGACCGGTTTTCCCGGTAATCCGTATTTGCT (site CTAGCAGCTAG) | 0.616

Row | Sequence | recombinant UMI read abundance (log10)
51 | CAAGCAGCATGGACCGGTTTTCCCGGTAATCCGTATTTGCT (site GAAGCAGCTAG) | 0.0166
52 | CAAGCAGCATGGACCGGTTTTCCCGGTAATCCGTATTTGCT (site TAAGCAGCTAG) | 0.00331
53 | CAAGCAGCATGGACCGGTTTTCCCGGTAATCCGTATTTGTT (site CAAGCAGCTAA) | 1.83
54 | CAAGCAGCATGGACCGGTTTTCCCGGTAATCCGTATTTGTT (site CAAGCAGCTAC) | 0.0209
55 | CAAGCAGCATGGACCGGTTTTCCCGGTAATCCGTATTTGTT (site CAAGCAGCTAG) | 2.47
56 | CAAGCAGCATGGACCGGTTTTCCCGGTAATCCGTATTTGTT (site CAAGCAGCTAT) | 1.65
57 | CAAGCCCCATGGACCGGTTTTCCCGGTAATCCGTATTTGTG (site CAAGCACCTCA) | 0.0304
58 | CAAGCCCCATGGACCGGTTTTCCCGGTAATCCGTATTTGTG (site CAAGCCCCTCA) | 0.0397
59 | CAAGCCCCATGGACCGGTTTTCCCGGTAATCCGTATTTGTG (site CAAGCGCCTCA) | 0.0132
60 | CAAGCCCCATGGACCGGTTTTCCCGGTAATCCGTATTTGTG (site CAAGCTCCTCA) | 0.0205
61 | CAAGCGCCATGGACCGGTTTTCCCGGTAATCCGTATTTGAG (site CAAGCGCCTCA) | 0.0151
62 | CAAGCGCCATGGACCGGTTTTCCCGGTAATCCGTATTTGAG (site CAAGCGCCTCC) | 0.0109
63 | CAAGCGCCATGGACCGGTTTTCCCGGTAATCCGTATTTGAG (site CAAGCGCCTCG) | 0.0182
64 | CAAGCGCCATGGACCGGTTTTCCCGGTAATCCGTATTTGAG (site CAAGCGCCTCT) | 0.322
65 | CAAGCGCCATGGACCGGTTTTCCCGGTAATCCGTATTTGTA (site CAAGCGCCTAA) | 0.239
66 | CAAGCGCCATGGACCGGTTTTCCCGGTAATCCGTATTTGTA (site CAAGCGCCTCA) | 0.173
67 | CAAGCGCCATGGACCGGTTTTCCCGGTAATCCGTATTTGTA (site CAAGCGCCTGA) | 1.01
68 | CAAGCGCCATGGACCGGTTTTCCCGGTAATCCGTATTTGTA (site CAAGCGCCTTA) | 1.49
69 | CAAGCGTCATGGACCGGTTTTCCCGGTAATCCGTATTTGTG (site CAAGCGACTCA) | 0.101
70 | CAAGCGTCATGGACCGGTTTTCCCGGTAATCCGTATTTGTG (site CAAGCGCCTCA) | 0.0275
71 | CAAGCGTCATGGACCGGTTTTCCCGGTAATCCGTATTTGTG (site CAAGCGGCTCA) | 0.00505
72 | CAAGCGTCATGGACCGGTTTTCCCGGTAATCCGTATTTGTG (site CAAGCGTCTCA) | 2.6
73 | CAAGGAACATGGACCGGTTTTCCCGGTAATCCGTATTTGCT (site CAAGGAACTAG) | 2.26
74 | CAAGGAGCATGGACCGGTTTTCCCGGTAATCCGTATTTGCT (site CAAGAAGCTAG) | 2.45
75 | CAAGGAGCATGGACCGGTTTTCCCGGTAATCCGTATTTGCT (site CAAGCAGCTAG) | 2.16
